According to the supplement of paper PMC4862054:
Several values for one entry are separate records, joined by “and”; a condition that tells them apart may be missing. Equal entries are not always repeated.

Experiments:
SK-BR-3 [1] = assay: drug sensitivity score (DSS), CellTiter-Blue viability (DSS (AUC-based score)); higher = stronger viability inhibition; extreme values may be limits of the assay; details: incubation time: 72 h
Procedure: (§1)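 DSRT with the CellTiter-Blue (resazurin reduction) viability readout, fluorescence 560/590 nm, 72 h incubation. Plates were normalised to DMSO and benzethonium chloride controls. DSS is computed from the area under the fitted dose-response curve (5 or 9 concentrations).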

BT-549 = assay: as above; details: incubation time: 72 h
Procedure: as §1

MDA-MB-453 = assay: as above; details: incubation time: 72 h
Procedure: as §1

CAL-120 [2] = assay: as above; details: incubation time: 72 h
Procedure: as §1

CAL-85-1 = assay: as above; details: incubation time: 72 h
Procedure: as §1

MDA-MB-436 = assay: as above; details: incubation time: 72 h
Procedure: as §1

HCC1599 = assay: as above; details: incubation time: 72 h
Procedure: as §1

HCC1937 [3] = assay: as above; details: incubation time: 72 h
Procedure: as §1

CAL-148 [4] = assay: as above; details: incubation time: 72 h
Procedure: as §1

MDA-MB-468 [5] = assay: as above; details: incubation time: 72 h
Procedure: as §1

MFM-223 [6] = assay: as above; details: incubation time: 72 h
Procedure: as §1

BT-474 = assay: as above; details: incubation time: 72 h
Procedure: as §1

MDA-MB-231 = assay: as above; details: incubation time: 72 h
Procedure: as §1

CAL-51 = assay: as above; details: incubation time: 72 h
Procedure: as §1

HDQ-P1 [7] = assay: as above; details: incubation time: 72 h
Procedure: as §1

DU-4475 = assay: as above; details: incubation time: 72 h
Procedure: as §1

Hs578T [8] = assay: as above; details: incubation time: 72 h
Procedure: as §1

HCC1143 = assay: as above; details: incubation time: 72 h
Procedure: as §1

CAL-120 [9] = assay: normalised viability (% of control), CellTiter-Blue; higher = more viable cells (100 = DMSO, 0 = benzethonium chloride kill control); details: incubation time: 72 h
Procedure, shortened: (§2)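 After 72 h on compound-loaded 384-well plates, breast cancer cell lines received 2.5 µl CellTiter-Blue reagent for 2 h at 37 °C. Fluorescence at 560/590 nm was scaled per plate so that vehicle was 100 and a positive kill control was 0. The value stands for normalised viability at a single listed concentration of the series.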

HCC1937 [10] = assay: as above; details: incubation time: 72 h
Procedure, shortened: as §2

CAL-148 [11] = assay: as above; details: incubation time: 72 h
Procedure, shortened: as §2

MFM-223 [12] = assay: as above; details: incubation time: 72 h
Procedure, shortened: as §2

HDQ-P1 [13] = assay: as above; details: incubation time: 72 h
Procedure, shortened: as §2

Hs578T [14] = assay: as above; details: incubation time: 72 h
Procedure, shortened: as §2

HCC1937 [15] = details: 72 h
Procedure, shortened: (§3)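 After 72 h on 384-well plates pre-loaded with compound in 5 µl medium, breast cancer cell lines seeded in 20 µl were assayed for viability with 2.5 µl CellTiter-Blue at 37 °C for 2 h, read at 560/590 nm. Each plate was quality-checked by Z'-factor and normalised to vehicle and a positive kill control. EC50 comes from the fitted percent-inhibition dose-response curve, censored at the top concentration, and rows scoring zero for drug sensitivity were left out.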

MDA-MB-468 [16] = details: 72 h
Procedure, shortened: as §3

SK-BR-3 [17] = details: 72 h
Procedure, shortened: as §3

SMILES: O=C(/C=C/c1cccnc1)NCCCCC1CCN(C(=O)c2ccccc2)CC1 [FK-866]
- drug sensitivity score (SK-BR-3 [1]): 0
- drug sensitivity score (BT-549): 23.9
- drug sensitivity score (MDA-MB-453): 27.2
- drug sensitivity score (CAL-120 [2]): 19.4
- drug sensitivity score (CAL-85-1): 9.18
- drug sensitivity score (MDA-MB-436): 22.3
- drug sensitivity score (HCC1599): 18.7
- drug sensitivity score (HCC1937 [3]): 7.6
- drug sensitivity score (CAL-148 [4]): 9.58
- drug sensitivity score (MDA-MB-468 [5]): 30.1
- drug sensitivity score (MFM-223 [6]): 23.9
- drug sensitivity score (BT-474): 9.11
- drug sensitivity score (MDA-MB-231): 15.6
- drug sensitivity score (CAL-51): 14.5
- drug sensitivity score (HDQ-P1 [7]): 9.7
- drug sensitivity score (DU-4475): 19.8
- drug sensitivity score (Hs578T [8]): 25.5
- drug sensitivity score (HCC1143): 22.2
- normalised viability (CAL-120 [9]; 0.1 nM): 106%
- normalised viability (HCC1937 [10]; 0.1 nM): 107%
- normalised viability (CAL-148 [11]; 0.1 nM): 110%
- normalised viability (MFM-223 [12]; 0.1 nM): 105%
- normalised viability (HDQ-P1 [13]; 0.1 nM): 105%
- normalised viability (Hs578T [14]; 0.1 nM): 105%
- EC50, CellTiter-Blue viability (HCC1937 [15]): 80.3 nM
- EC50, CellTiter-Blue viability (MDA-MB-468 [16]): 3.01 nM

SMILES: Nc1nc(F)nc2c1ncn2[C@@H]1O[C@H](CO)[C@@H](O)[C@@H]1O [Fludarabine]
- drug sensitivity score (SK-BR-3 [1]): 1.12
- drug sensitivity score (BT-549): 0.397
- drug sensitivity score (MDA-MB-453): 0
- drug sensitivity score (CAL-120 [2]): 0
- drug sensitivity score (CAL-85-1): 0
- drug sensitivity score (MDA-MB-436): 0
- drug sensitivity score (HCC1599): 0
- drug sensitivity score (HCC1937 [3]): 4.57
- drug sensitivity score (CAL-148 [4]): 0
- drug sensitivity score (MDA-MB-468 [5]): 0
- drug sensitivity score (MFM-223 [6]): 0
- drug sensitivity score (BT-474): 0
- drug sensitivity score (MDA-MB-231): 0
- drug sensitivity score (CAL-51): 0
- drug sensitivity score (HDQ-P1 [7]): 0
- drug sensitivity score (DU-4475): 0
- drug sensitivity score (Hs578T [8]): 0
- drug sensitivity score (HCC1143): 0
- normalised viability (CAL-120 [9]; 1 nM): 83%
- normalised viability (HCC1937 [10]; 1 nM): 105%
- normalised viability (CAL-148 [11]; 1 nM): 81.9%
- normalised viability (MFM-223 [12]; 1 nM): 101%
- normalised viability (HDQ-P1 [13]; 1 nM): 134%
- normalised viability (Hs578T [14]; 1 nM): 109%
- EC50, CellTiter-Blue viability (SK-BR-3 [17]): 2120 nM
- EC50, CellTiter-Blue viability (HCC1937 [15]): 1320 nM

SMILES: O=C(Cc1ccc(-c2ccc(OCCN3CCOCC3)cc2)cn1)NCc1ccccc1 [KX2-391]
- drug sensitivity score (SK-BR-3 [1]): 25
- drug sensitivity score (BT-549): 24.1
- drug sensitivity score (MDA-MB-453): 21.5
- drug sensitivity score (CAL-120 [2]): 23.4
- drug sensitivity score (CAL-85-1): 19.6
- drug sensitivity score (MDA-MB-436): 14.6
- drug sensitivity score (HCC1599): 7.95
- drug sensitivity score (HCC1937 [3]): 24.2
- drug sensitivity score (CAL-148 [4]): 22.6
- drug sensitivity score (MDA-MB-468 [5]): 16.6
- drug sensitivity score (MFM-223 [6]): 17.9
- drug sensitivity score (BT-474): 11.2
- drug sensitivity score (MDA-MB-231): 24.2
- drug sensitivity score (CAL-51): 24.2
- drug sensitivity score (HDQ-P1 [7]): 16
- drug sensitivity score (DU-4475): 25.9
- drug sensitivity score (Hs578T [8]): 25.9
- drug sensitivity score (HCC1143): 23.1
- normalised viability (CAL-120 [9]; 1 nM): 93.8%
- normalised viability (HCC1937 [10]; 1 nM): 93.7%
- normalised viability (CAL-148 [11]; 1 nM): 107%
- normalised viability (MFM-223 [12]; 1 nM): 91.7%
- normalised viability (HDQ-P1 [13]; 1 nM): 138%
- normalised viability (Hs578T [14]; 1 nM): 130%
- EC50, CellTiter-Blue viability (SK-BR-3 [17]): 34.8 nM
- EC50, CellTiter-Blue viability (HCC1937 [15]): 47.2 nM
- EC50, CellTiter-Blue viability (MDA-MB-468 [16]): 40.3 nM

SMILES: CCN(CC)CCCC(C)Nc1c2ccc(Cl)cc2nc2ccc(OC)cc12 (stereo not given) [Mepacrine]
- drug sensitivity score (SK-BR-3 [1]): 5.2 and 2.74
- drug sensitivity score (BT-549): 2.79 and 5
- drug sensitivity score (MDA-MB-453): 6.26 and 3.66
- drug sensitivity score (CAL-120 [2]): 6.95 and 4.06
- drug sensitivity score (CAL-85-1): 4.8 and 2.06
- drug sensitivity score (MDA-MB-436): 6.69 and 2.28
- drug sensitivity score (HCC1599): 5.6 and 4.64
- drug sensitivity score (HCC1937 [3]): 9 and 9.95
- drug sensitivity score (CAL-148 [4]): 5.43 and 4.13
- drug sensitivity score (MFM-223 [6]): 2.66 and 2.79
- drug sensitivity score (BT-474): 4.38 and 1.69
- drug sensitivity score (MDA-MB-231): 8.94 and 9.12
- drug sensitivity score (CAL-51): 3.49 and 2.1
- drug sensitivity score (HDQ-P1 [7]): 6.58 and 6.72
- drug sensitivity score (DU-4475): 4.6 and 3.08
- drug sensitivity score (Hs578T [8]): 2.46 and 1.85
- drug sensitivity score (HCC1143): 3.86 and 1.45
- normalised viability (CAL-120 [9]; 0.099 nM): 114%
- normalised viability (CAL-120 [9]; 1 nM): 97.7%
- normalised viability (HCC1937 [10]; 0.099 nM): 94.7%
- normalised viability (HCC1937 [10]; 1 nM): 86%
- normalised viability (CAL-148 [11]; 0.099 nM): 115%
- normalised viability (CAL-148 [11]; 1 nM): 96.9%
- normalised viability (MFM-223 [12]; 0.099 nM): 103%
- normalised viability (MFM-223 [12]; 1 nM): 96%
- normalised viability (HDQ-P1 [13]; 0.099 nM): 115%
- normalised viability (HDQ-P1 [13]; 1 nM): 108%
- normalised viability (Hs578T [14]; 0.099 nM): 113%
- normalised viability (Hs578T [14]; 1 nM): 127%
- EC50, CellTiter-Blue viability (SK-BR-3 [17]): 1520 nM
- EC50, CellTiter-Blue viability (HCC1937 [15]): 519 nM
- EC50, CellTiter-Blue viability (MDA-MB-468 [16]): 1430 nM

SMILES: O=C(O)C(=O)O.[NH-][C@@H]1CCCC[C@H]1[NH-].[Pt+2] [Oxaliplatin]
- drug sensitivity score (SK-BR-3 [1]): 0.975
- drug sensitivity score (BT-549): 4
- drug sensitivity score (MDA-MB-453): 1.94
- drug sensitivity score (CAL-120 [2]): 0
- drug sensitivity score (CAL-85-1): 0
- drug sensitivity score (MDA-MB-436): 2.6
- drug sensitivity score (HCC1599): 2.34
- drug sensitivity score (HCC1937 [3]): 3.82
- drug sensitivity score (CAL-148 [4]): 2.79
- drug sensitivity score (MDA-MB-468 [5]): 2.32
- drug sensitivity score (MFM-223 [6]): 0
- drug sensitivity score (BT-474): 0
- drug sensitivity score (MDA-MB-231): 0
- drug sensitivity score (CAL-51): 1.13
- drug sensitivity score (HDQ-P1 [7]): 0
- drug sensitivity score (DU-4475): 1.32
- drug sensitivity score (Hs578T [8]): 0
- drug sensitivity score (HCC1143): 1.68
- normalised viability (CAL-120 [9]; 1 nM): 84.8%
- normalised viability (HCC1937 [10]; 1 nM): 84%
- normalised viability (CAL-148 [11]; 1 nM): 109%
- normalised viability (MFM-223 [12]; 1 nM): 97.1%
- normalised viability (HDQ-P1 [13]; 1 nM): 130%
- normalised viability (Hs578T [14]; 1 nM): 96.7%
- EC50, CellTiter-Blue viability (SK-BR-3 [17]): 9660 nM
- EC50, CellTiter-Blue viability (HCC1937 [15]): 4810 nM
- EC50, CellTiter-Blue viability (MDA-MB-468 [16]): 3250 nM

SMILES: COc1cc([C@@H]2c3cc4c(cc3[C@@H](O[C@@H]3O[C@@H]5CO[C@@H](c6cccs6)O[C@H]5[C@H](O)[C@H]3O)[C@H]3COC(=O)[C@H]23)OCO4)cc(OC)c1O [Teniposide]
- drug sensitivity score (SK-BR-3 [1]): 21.4
- drug sensitivity score (BT-549): 9.11
- drug sensitivity score (MDA-MB-453): 6.23
- drug sensitivity score (CAL-120 [2]): 11.2
- drug sensitivity score (CAL-85-1): 8.14
- drug sensitivity score (MDA-MB-436): 10.3
- drug sensitivity score (HCC1599): 8.13
- drug sensitivity score (HCC1937 [3]): 19.7
- drug sensitivity score (CAL-148 [4]): 18.5
- drug sensitivity score (MDA-MB-468 [5]): 10.9
- drug sensitivity score (MFM-223 [6]): 7.43
- drug sensitivity score (BT-474): 1.44
- drug sensitivity score (MDA-MB-231): 7.47
- drug sensitivity score (CAL-51): 22.2
- drug sensitivity score (HDQ-P1 [7]): 4.07
- drug sensitivity score (DU-4475): 28
- drug sensitivity score (Hs578T [8]): 4.64
- drug sensitivity score (HCC1143): 11.7
- normalised viability (CAL-120 [9]; 1 nM): 98.2%
- normalised viability (HCC1937 [10]; 1 nM): 94%
- normalised viability (CAL-148 [11]; 1 nM): 103%
- normalised viability (MFM-223 [12]; 1 nM): 92.1%
- normalised viability (HDQ-P1 [13]; 1 nM): 104%
- normalised viability (Hs578T [14]; 1 nM): 127%
- EC50, CellTiter-Blue viability (SK-BR-3 [17]): 91.7 nM
- EC50, CellTiter-Blue viability (HCC1937 [15]): 103 nM
- EC50, CellTiter-Blue viability (MDA-MB-468 [16]): 1080 nM
